Activity calls are given as the source filed them.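 How the source made its calls: active means mean IC50 at or below a set limit; inactive means the rest.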

Experiment [1] can be described thus: NF-kB reporter suppression in B cells – 697 B cells, PMA/ionomycin, luminescence, dose response (AID 489034). Conditions: 697 B-cell NF-kB luciferase reporter, PMA/ionomycin, 16 h; at 80 µM (top of the series). Background: In a reporter assay the amount or activity of a reporter protein is the signal.
Experiment [2] deals with 697 B-cell NF-kB luciferase reporter, PMA/ionomycin, 16 h. The description is as above.

In general, inhibition refers to the share of the control response that was lost under treatment. Turning to `N=c1c2c(n(Cc3ccc(Br)cc3)c3c1CCC3)CCCC2`, the inhibition in experiment [1] is 60.6% (inactive).
On the same count and under the same terms, as for `N=c1ccn2c(n1)O[C@H]1[C@@H](CO)[C@H](O)O[C@H]12`, the figure is 48.5%.
As usually defined, the IC50 is the concentration that gives 50% inhibition. Take `COc1ccc(C(=O)CN2C(=O)c3ccccc3S2(=O)=O)cc1`: in experiment [2], the IC50 is 691 nM.
Same read-out and setting: as for `Cc1cc(C(=O)COC(=O)c2ccccc2O)c(C)n1CC1CCCO1` (configuration not stated), the figure is 267 nM; as for `N#CC(c1cccc(Cl)c1)c1ccc2c(C(F)(F)F)cc(C(F)(F)F)nc2n1` (configuration not stated), > 80000 nM (inactive).
On the same count and under the same terms, as for `O=C(Nc1ccc(Cl)cc1)Nc1cccc(C(=O)O)c1`, the figure is 2220 nM; as for `CCCCCn1c(=O)[nH]c2cc(C(=O)N3CCN(Cc4ccc5c(c4)OCO5)CC3)ccc2c1=O`, > 80000 nM (inactive).
As for `C[n+]1c(-c2ccccc2)c2cc(N)ccc2c2ccc(N)cc21`, the IC50 in experiment [2] was > 80000 nM (inactive).
On the same count and under the same terms, the value for `Cn1nc(C(C)(C)C)cc1C(=O)NCc1ccc(N2CCCC2=O)cc1` was > 80000 nM (inactive); that for `COc1cc(/C=N/NC(=S)Nc2cccc(C(=O)O)c2)ccc1O` was 15300 nM; that for `Cn1nccc1C(=O)NC1CCCc2c1cnn2-c1ccc(F)cc1F` (configuration not stated) was > 80000 nM (inactive).
The same measure, in the same setting: as for `CC(=O)OC[C@]12CCC(C)=C[C@H]1O[C@@H]1[C@H](O)[C@@H](OC(C)=O)[C@@]2(C)[C@]12CO2`, the figure is below 160 nM; as for `Cc1ccc(OCCN2CCN(c3ncnc4sc(C)c(C)c34)CC2)cc1`, > 80000 nM (inactive).
Still for that read-out and setting: as for `Cc1ccc(Cn2ccsc2=NC(=O)CCl)cc1`, the figure is 489 nM.
In the case of `Cc1ccnc(NC(=O)CCCOc2cc(=O)n(C)c3ccccc23)c1`, the IC50 in experiment [2] was 8540 nM.
On the same count and under the same terms, the value for `CCN1/C(=C/c2ccc3cc(C)ccc3[n+]2CC)Sc2ccccc21` was > 80000 nM (inactive); that for `Cc1cc2sc3ccc(C#CC4(O)CCCCC4)cc3c(=O)c2cc1C` was below 160 nM; that for `CC(C)(O)c1[nH]c2ccc(C#N)cc2c1C(C)(C)O` was > 80000 nM (inactive).
Same read-out and setting: as for `CCc1cc2c(Sc3nc4ccccc4s3)ncnc2s1`, the figure is below 160 nM.
On the same count and under the same terms, as for `O=C(Nc1cccc(C(=O)O)c1)Nc1ccc2c(c1)OCO2`, the figure is 1140 nM; as for `CC(C)c1ccc(-c2nnn(CCC(=O)O)n2)cc1`, 202 nM.
As for `c1ccc(-c2ccc(-c3nc(-c4ccccn4)no3)cc2)cc1`, the IC50 in experiment [2] was 967 nM.
As to `COc1ccc(OC)c(C2C3=C(COC3=O)Nc3cc4c(cc32)OCO4)c1` (configuration not stated), the IC50 in experiment [2] is > 80000 nM (inactive).
The same measure, in the same setting: the value for `CCOc1ccc(/C=C2\SC(=S)N(CCC(=O)O)C2=O)cc1` was 211 nM.
For `Nc1nc(Cl)nc2c1ncn2[C@H]1C[C@H](O)[C@@H](CO)O1`, the IC50 in experiment [2] is 5060 nM.
In the case of `C[C@@H]1C[C@@H]2O[C@H]2/C=C\C=C\C(=O)Cc2c(Cl)c(O)cc(O)c2C(=O)O1`, the IC50 in experiment [2] was 275 nM.
The same measure, in the same setting: as for `CC(=O)OC(C)(C)/C=C/C(=O)[C@](C)(O)C1[C@H](O)C[C@@]2(C)C3CC=C4C(C[C@H](O)C(=O)C4(C)C)[C@]3(C)C(=O)C[C@]12C` (some centres not stated), the figure is 7020 nM; as for `CC(C)(C)c1ccc(C(=O)N2CCCCCC2=O)cc1`, 579 nM; as for `CCN(CC)S(=O)(=O)c1ccc(Oc2ccc(S(=O)(=O)N(CC)CC)cc2)cc1`, > 80000 nM (inactive).
On the same count and under the same terms, the value for `C=C1C(=O)O[C@@H]2C[C@@H](C)[C@@H]3C=CC(=O)[C@@]3(C)[C@@H](OC(=O)CC(=O)O[C@H]3[C@@H]4C(=C)C(=O)O[C@@H]4C[C@@H](C)[C@@H]4C=CC(=O)[C@]43C)[C@H]12` was 377 nM.
On the same count and under the same terms, as for `C[C@H](NC(=O)c1nc[nH]c1C(=O)N[C@@H](C)C(=O)OCc1ccccc1)C(=O)OCc1ccccc1`, the figure is > 80000 nM (inactive); as for `CCOC(=O)C1CCCN(S(=O)(=O)c2ccc(S(=O)(=O)N(CC)CC)cc2)C1` (configuration not stated), > 80000 nM (inactive); as for `Cc1ccc2nc(NC(=O)CCCC(=O)O)sc2c1`, 2130 nM.
On to `CCOc1ccc(S(=O)(=O)NCc2ccncc2)cc1`, for which the IC50 in experiment [2] was > 80000 nM (inactive).
On the same count and under the same terms, as for `C=C1C(=O)O[C@@H]2C[C@@H](C)[C@@H]3C=CC(=O)[C@@]3(C)[C@@H](OC(C)=O)[C@H]12`, the figure is > 80000 nM (inactive).
On the same count and under the same terms, as for `COc1ccc(/C=C2\SC(=O)N(CCCC(=O)Nc3cc(Cl)ccc3C(=O)O)C2=O)cc1`, the figure is 331 nM; as for `O=C(COC(=O)c1ccc[nH]c1=O)Nc1ccc(N2CCCCC2)cc1`, 436 nM.
For `Cn1nccc1C(=O)NC1CCCc2c1cnn2-c1ccccc1F` (configuration not stated), the IC50 in experiment [2] is 56300 nM (inactive).
As for `CCCCCCn1ccc(=N)cc1`, the IC50 in experiment [2] is > 80000 nM (inactive).
Still for that read-out and setting: as for `CC1CCN(c2nc3ccc(C(=O)O)cc3s2)CC1`, the figure is 1330 nM; as for `NC1=NC[C@H](Cc2ccc(O)cc2)N1CCCCC1CCCCC1`, > 80000 nM (inactive); as for `CC(C)(C)c1ccc(C(=O)Nc2ccc(CC(=O)O)cc2)o1`, below 160 nM.
The same measure, in the same setting: as for `COc1ccc(C[C@H]2NC[C@H](O)[C@H]2OC(C)=O)cc1`, the figure is below 160 nM.
Still for that read-out and setting: the value for `Cc1ccc(-c2csc(NC(=O)C3CCN(S(=O)(=O)c4cccs4)CC3)n2)cc1` was > 80000 nM (inactive); that for `O=C(NCCc1ccccc1F)c1ccc2c(c1)OCCO2` was 675 nM; that for `CC(Nc1ncnc2sccc12)c1ccccc1` (configuration not stated) was 64400 nM (inactive).
In the case of `Cn1nc(CC(=O)Nc2ccc3c(c2)OCCO3)c2ccccc2c1=O`, the IC50 in experiment [2] is 68700 nM (inactive).
Still for that read-out and setting: as for `Cc1cc(CSc2ccccc2)ccc1NC(=O)c1ccc(CN2CCOCC2)cc1`, the figure is > 80000 nM (inactive); as for `CC1CCc2c(sc(NC(=O)CSc3ncn[nH]3)c2C#N)C1` (configuration not stated), 209 nM; as for `CCc1ccc(-c2nc(CS(=O)CC(=O)NCc3ccco3)c(C)o2)cc1` (configuration not stated), > 80000 nM (inactive).
Regarding `COc1ccc(CCNc2c(C)c(C)nc3ncnn23)cc1`, the IC50 in experiment [2] was > 80000 nM (inactive).
The same measure, in the same setting: as for `COc1ccc(CNc2ncc(-c3ccc(F)cc3)n2C)c2ccccc12`, the figure is 1570 nM; as for `COC1=CC(=O)[C@]2(C=C1OC)OC[C@@H]1Oc3c(ccc4c3C=CC(C)(C)O4)C(=O)[C@@H]12`, 47700 nM (inactive); as for `Nc1nc(F)nc2c1ncn2[C@@H]1O[C@H](CO)[C@@H](O)[C@H]1O`, 1370 nM.
For the compound `COc1cccc2c1C(=O)c1c(O)c3c(c(O)c1C2=O)C[C@@](O)(C(=O)CO)C[C@@H]3O[C@H]1C[C@H](N)[C@H](O)[C@H](C)O1`, in experiment [2], the IC50 is > 80000 nM (inactive).
With `CCn1c(C)nc2cc(-c3nc4n(n3)Cc3ccccc3-4)ccc21`, in experiment [2], the IC50 is 198 nM.
On the same count and under the same terms, as for `O=C(CCl)N1CCCC1c1ccc2c(c1)OCCO2` (configuration not stated), the figure is 478 nM; as for `CCCCCCCCNc1ncnc2ccccc12`, > 80000 nM (inactive).
Turning to `Cc1cc([N+](=O)[O-])nn1Cc1ccccc1F`, in experiment [2], the IC50 is > 80000 nM (inactive).
Still for that read-out and setting: as for `O=C(CN1C(=O)c2ccccc2S1(=O)=O)c1ccc2c(c1)OCCO2`, the figure is below 160 nM.
Consider `CCCCCCCCn1ccc(=N)cc1`, for which the IC50 in experiment [2] was > 80000 nM (inactive).
On the same count and under the same terms, the value for `COc1ccc(-c2cc3nc(C)n(N)c(=O)c3s2)cc1` was 673 nM.

The record behind these values is PubChem BioAssay AID489034 (Sanford-Burnham Center for Chemical Genomics, 2010).
